Assay results reported in paper PMC6137088, “The Role of Outer Membrane Proteins and Lipopolysaccharides for the Sensitivity of Escherichia coli to Antimicrobial Peptides” (Frontiers in Microbiology, 2018).
Where no end group is shown, it is not given here.

Experiments:
[1] = system: E. coli ATCC25922 ΔwaaC; type: cell-based, Escherichia coli; conditions: Table 6, triplicates
From the text: (§1) The E. coli strains 470, F632, F653 and F2513 were kindly provided by Prof. H. Brade and Prof. S. Muller-Loennies, Research Center Borstel, Leipniz-Center for Medicine and Biosciences, Germany. E. coli BW25113 (CGSC#:7636), a derivative of F^−, λ^− E. coli K12 strain BD792 is the wild-type strain which was used in the generation of the KEIO collection and ordered from the Coli Genetic Stock Centre (CGSC, Yale University). E. coli JW3596, E. coli JW3024, E. coli JW3595, E. coli JW3606, E. coli JW0212, E. coli JW1667, E. coli JW0554, E. coli JW3605 and E. coli JW3600 are isogenic mutants of waaC, waaE, waaF, waaG, gmhA (lpcA), lpp, ompT, waaP, or waaY derived from the parental strain E. coli BW25113 and were ordered from the KEIO collection (Baba et al., [2006]). E. coli ATCC25922 is a clinical isolate, serotype O6, often used as control strain in antimicrobial susceptibility testing was ordered from the ATCC strain collection. All strains were grown in Mueller-Hinton-II medium and incubation took place aerobically at 37°C for 18–20 h.
(§2) The minimum inhibitory concentrations (MICs) of the AMPs were measured in 96-well microtiter plates according the Clinical and Laboratory Standards Institute [CLSI, formerly National Committee for Clinical Laboratory Standards (NCCLS)] (Wikler et al., [2009]). Liquid Mueller-Hinton-II medium containing increasing concentrations of AMPs is inoculated with a defined number of cells (~10^5 CFUs/ml) in 96-well microtiter plates (polypropylene). Each microtiter plate includes a positive growth control and a negative control (sterile control). After incubation, the minimal inhibitory concentration (MIC) is determined by the lowest concentration showing no visible growth. All plates were incubated for 16–20 h.

[2] = system: E. coli ATCC25922 ΔwaaF; type: cell-based, Escherichia coli; conditions: Table 6, triplicates
From the text: as §1, §2

[3] = system: E. coli ATCC25922 ΔwaaE; type: cell-based, Escherichia coli; conditions: Table 6, triplicates
From the text: as §1, §2

[4] = system: E. coli ATCC25922 ΔwaaG; type: cell-based, Escherichia coli; conditions: Table 6, triplicates
From the text: as §1, §2

[5] = system: E. coli ATCC25922; type: cell-based, Escherichia coli; conditions: Table 6; E. coli ATCC25922 wild-type; triplicates
From the text: as §1, §2

[6] = system: S. typhimurium LT2; assay: MIC testing (CLSI broth microdilution); type: cell-based; conditions: Table 6, triplicates
Procedure: as §2

[7] = system: Y. ruckeri 392/2003; assay: MIC testing (CLSI broth microdilution); type: cell-based; conditions: Table 6, triplicates
Procedure: as §2

[8] = system: E. coli F653 (R3); type: cell-based, Escherichia coli; conditions: Table 4; E. coli F653 (R3 prototype, rough LPS); triplicates
From the text: as §1, §2

[9] = system: E. coli BW25113 waaE::kan; type: cell-based, Escherichia coli; conditions: Table 3; BW25113 waaE::kan; Mueller-Hinton-II, 16–20 h; duplicates (*) or triplicates
From the text: as §1, §2

[10] = system: E. coli F632 (R2); type: cell-based, Escherichia coli; conditions: Table 4; E. coli F632 (R2 prototype, rough LPS); triplicates
From the text: as §1, §2

[11] = system: E. coli BW25113 waaC::kan; type: cell-based, Escherichia coli; conditions: Table 3; BW25113 waaC::kan; Mueller-Hinton-II, 16–20 h; duplicates (*) or triplicates
From the text: as §1, §2

[12] = system: E. coli BW25113 waaG::kan; type: cell-based, Escherichia coli; conditions: Table 3; BW25113 waaG::kan; Mueller-Hinton-II, 16–20 h; duplicates (*) or triplicates
From the text: as §1, §2

[13] = system: E. coli BW25113 waaF::kan; type: cell-based, Escherichia coli; conditions: Table 3; BW25113 waaF::kan; Mueller-Hinton-II, 16–20 h; duplicates (*) or triplicates
From the text: as §1, §2

[14] = system: E. coli F2513 (R4); type: cell-based, Escherichia coli; conditions: Table 4; E. coli F2513 (R4 prototype, rough LPS); triplicates
From the text: as §1, §2

[15] = system: E. coli F470 (R1); type: cell-based, Escherichia coli; conditions: Table 4; E. coli F470 (R1 prototype, rough LPS); triplicates
From the text: as §1, §2

[16] = system: E. coli BW25113 ompT::kan; type: cell-based, Escherichia coli; conditions: Table 3; BW25113 ompT::kan; Mueller-Hinton-II, 16–20 h; duplicates (*) or triplicates
From the text: as §1, §2

[17] = system: E. coli BW25113; type: cell-based, Escherichia coli; conditions: Table 3; E. coli BW25113 wild type; Mueller-Hinton-II, ~10^5 CFUs/ml, 16–20 h; duplicates (*) or triplicates
From the text: as §1, §2

[18] = system: E. coli BW25113 gmhA::kan; type: cell-based, Escherichia coli; conditions: Table 3; BW25113 gmhA::kan; Mueller-Hinton-II, 16–20 h; duplicates (*) or triplicates
From the text: as §1, §2

Sequence	Antimicrobial activity: MIC [1] [µg/mL]	Antimicrobial activity: MIC [2] [µg/mL]	Antimicrobial activity: MIC [3] [µg/mL]	Antimicrobial activity: MIC [4] [µg/mL]	Antimicrobial activity: MIC [5] [µg/mL]	Antimicrobial activity: MIC [6] [µg/mL]	Antimicrobial activity: MIC [7] [µg/mL]	Antimicrobial activity (MIC) [8] [µg/mL]	MIC [9] [µg/mL]	Antimicrobial activity (MIC) [10] [µg/mL]	MIC [11] [µg/mL]	MIC [12] [µg/mL]	MIC [13] [µg/mL]	Antimicrobial activity (MIC) [14] [µg/mL]	Antimicrobial activity (MIC) [15] [µg/mL]	MIC [16]	MIC [17] [µg/mL]	MIC [18]
GLRKRLRKFRNKDKEKLKKIGQKIQGLLPKLAPRTDY [I13D]	≥64	≥64	≥64	≥64	≥64	≥64	≥64											
GLRKRLRKFRNKFKEKLKKIGQKIQGLLPKLAPRTDY [I13F]	2	2	2	2	4	4	2											
GLRKRLRKFRNKHKEKLKKIGQKIQGLLPKLAPRTDY [I13H]	2	2	2	2	4	4	8 to 16											
GLRKRLRKFRNKIKECLKKIGQKIQGLLPKLAPRTDY [K16C]	4	4	8	8	8	8 to 16	8 to 16											
GLRKRLRKFRNKIKEDLKKIGQKIQGLLPKLAPRTDY [K16D]	2	2	8	4	4	4	4											
GLRKRLRKFRNKIKEKDKKIGQKIQGLLPKLAPRTDY [L17D]	≥64	≥64	≥64	≥64	≥64	≥64	≥64											
GLRKRLRKFRNKIKEKLKKIGQKDQGLLPKLAPRTDY [I24D]	16	16	16	≥64	≥64	≥64	≥64											
GLRKRLRKFRNKIKEKLKKIGQKIQTLLPKLAPRTDY [G26T]	4	4	4	4	8	4 to 8	2 to 4											
GLRKRLRKFRNKIKEKLKKIGQKNQGLLPKLAPRTDY [I24N]	8	8	16	16	≥64	32	≥64											
GLRKRLRKFRNKIKEKLKKNGQKIQGLLPKLAPRTDY [I20N]	16	8	16	16	≥64	8 to 16	≥64											
GLRKRLRKFRNKIKEKLPKIGQKIQGLLPKLAPRTDY [K18P]	2	4	4	4	8	4	32											
GLRKRLRKFRNKIKEKPKKIGQKIQGLLPKLAPRTDY [L17P]	≥64	≥64	≥64	≥64	≥64	≥64	≥64											
GLRKRLRKFRNKMKEKLKKIGQKIQGLLPKLAPRTDY [I13M]	4	4	8	4	8	8	4											
GLRKRLRKFRNKPKEKLKKIGQKIQGLLPKLAPRTDY [I13P]	32	16	32	32	≥64	16 to 32	≥64											
GLRKRLRKFRNKRKEKLKKIGQKIQGLLPKLAPRTDY [I13R]	32	16	≥64	8	≥64	16 to 32	32 to 64											
GLRKRPRKFRNKIKEKLKKIGQKIQGLLPKLAPRTDY [L6P]	4	4	8	4	8	8	64											
KLRKLFRKLLKLIRKLLR [Cap11-1-18 m^2]								≥32	8	16 to 32	8	8	8	8 to 16	32	8 ^* μg/ml	8 to 16	8 ^* μg/ml
